Test results published in patent US8263651B2, “Use of cis-epoxyeicosatrienoic acids and inhibitors of soluble epoxide hydrolase to treat conditions mediated by PBR, CB2, and NK2 receptors” (The Regents of the University of California, priority 2006, dated 2012).

Molecular target: T1, sEH (Homo sapiens, UniProt P34913)
T1 sequence (P34913 1-555): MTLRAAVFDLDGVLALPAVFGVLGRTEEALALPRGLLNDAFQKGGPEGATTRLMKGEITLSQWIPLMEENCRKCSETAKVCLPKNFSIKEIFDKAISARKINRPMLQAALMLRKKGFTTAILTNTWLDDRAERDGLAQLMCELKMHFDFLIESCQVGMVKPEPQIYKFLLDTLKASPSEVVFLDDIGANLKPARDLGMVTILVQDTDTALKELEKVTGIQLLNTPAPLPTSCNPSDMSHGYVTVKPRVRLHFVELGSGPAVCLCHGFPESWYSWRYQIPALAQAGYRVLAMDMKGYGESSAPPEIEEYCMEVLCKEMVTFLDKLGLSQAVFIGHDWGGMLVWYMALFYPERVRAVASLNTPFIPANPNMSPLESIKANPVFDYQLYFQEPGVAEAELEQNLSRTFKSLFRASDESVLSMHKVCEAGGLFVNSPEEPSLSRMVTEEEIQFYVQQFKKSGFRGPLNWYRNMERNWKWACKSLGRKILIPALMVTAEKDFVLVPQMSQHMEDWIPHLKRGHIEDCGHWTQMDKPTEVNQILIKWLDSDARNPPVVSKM
Test: sEH inhibition, assay not specified
Type: biochemical
Text: Any of a number of standard assays for determining epoxide hydrolase activity can be used to determine inhibition of sEH. For example, suitable assays are described in Gill, et al., Anal Biochem 131:273-282 (1983); and Borhan, et al., Analytical Biochemistry 231:188-200 (1995)). Suitable in vitro assays are described in Zeldin et al., J. Biol. Chem. 268:6402-6407 (1993). Suitable in vivo assays are described in Zeldin et al., Arch Biochem Biophys 330:87-96 (1996). […]
The enzyme also can be detected based on the binding of specific ligands to the catalytic site which either immobilize the enzyme or label it with a probe such as dansyl, fluoracein, luciferase, green fluorescent protein or other reagent. […] The enzyme also can be detected based on the generation of fluorescent products following the hydrolysis of the epoxide. […]

SMILES: CCCCCCCCCCCCNC(=O)NC12CC3CC(CC(C3)C1)C2 [ADU, N-Adamantyl-N′-dodecyl urea]
- activity as an inhibitor of sEH: particularly high activity
